The source made the active and inactive calls. Cut-off read from the data, not from the text of the source: actives have a measured IC50 and inactives only a lower limit.
Each molecule was assayed against Envelope glycoprotein gp160 (Human immunodeficiency virus 1, UniProt Q6QLK5) (assay: inhibitors of HIV fusion peptide binding, primary screen, biochemical, uHTS, fluorescence dequenching (AID 1986)).
Envelope glycoprotein gp160, sequence (Q6QLK5 whole entry, the tested form may be a part): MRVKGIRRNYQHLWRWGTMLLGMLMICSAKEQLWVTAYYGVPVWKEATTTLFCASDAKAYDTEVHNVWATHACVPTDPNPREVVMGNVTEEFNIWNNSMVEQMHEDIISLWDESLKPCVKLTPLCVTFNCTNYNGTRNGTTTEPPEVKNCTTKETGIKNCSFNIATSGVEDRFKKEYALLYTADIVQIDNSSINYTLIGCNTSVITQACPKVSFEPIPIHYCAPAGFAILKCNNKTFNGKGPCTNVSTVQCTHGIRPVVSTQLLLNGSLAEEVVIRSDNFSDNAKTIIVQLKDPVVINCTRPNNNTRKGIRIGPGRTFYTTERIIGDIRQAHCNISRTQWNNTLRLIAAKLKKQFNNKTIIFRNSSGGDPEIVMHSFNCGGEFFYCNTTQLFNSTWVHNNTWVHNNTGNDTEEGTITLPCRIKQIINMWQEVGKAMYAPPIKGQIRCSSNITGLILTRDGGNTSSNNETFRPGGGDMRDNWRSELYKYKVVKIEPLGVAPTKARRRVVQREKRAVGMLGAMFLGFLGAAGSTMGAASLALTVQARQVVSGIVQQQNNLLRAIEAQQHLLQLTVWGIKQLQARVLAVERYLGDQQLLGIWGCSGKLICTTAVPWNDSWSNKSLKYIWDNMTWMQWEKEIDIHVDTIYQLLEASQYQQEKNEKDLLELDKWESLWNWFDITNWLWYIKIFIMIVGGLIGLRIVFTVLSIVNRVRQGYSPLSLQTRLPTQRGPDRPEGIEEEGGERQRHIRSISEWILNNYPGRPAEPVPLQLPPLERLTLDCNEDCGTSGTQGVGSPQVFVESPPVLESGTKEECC
For `N=C1/C(=C/c2ccc(-c3cccc(C(=O)O)c3)o2)C(=O)N=C2SC=C(c3ccccc3)N12`, the IC50 was 6.34 µM (active).
With `CCS(=O)(=O)C1=NSC2=NC(=O)/C(=C\c3ccc(OS(=O)(=O)c4ccccc4)cc3)C(=N)N21` the IC50 was 19.9 µM (active).
For `COc1cc(/C=C2\C(=N)N3N=C(S(C)(=O)=O)SC3=NC2=O)ccc1OS(=O)(=O)c1ccccc1`, the IC50 was 19.3 µM (active).
For `COc1cc(Cl)cc(C(c2c(C(=O)O)[nH]c3ccccc23)c2c(C(=O)O)[nH]c3ccccc23)c1O`, the IC50 was 4.81 µM (active).
For `O=C1N=C(NS(=O)(=O)c2ccccc2)S/C1=C\c1cc([N+](=O)[O-])ccc1O`, the IC50 was 12.7 µM (active).

Reference: ChEMBL document CHEMBL1201862, “PubChem BioAssay data set” (2004)
